Data as given in patent publication US12419811B2, “Hydrogel drug delivery composition” (Board of Regents of the University of Nebraska, priority 2019, dated 2025).

Tests used:
[1] = In vitro release of BIO from PF127 hydrogel (membrane-less); type: physicochemical; details: 37° C.
Description: After gelation, 2 mL of phosphate-buffered saline (PBS; pH 7.4) containing 0.5% Tween 80 pre-equilibrated at 37° C. were gently laid over the surface of the hydrogels and incubated in a water bath at 37° C. with continuous gentle shaking. […] The release study was performed in triplicate.

[2] = tested on: β-catenin; experiment: BIO hydrogels in rat experimental periodontitis, IHC staining of β-catenin; type: in vivo, Sprague Dawley rats; details: between M1 and M2
Text: (§1) Ten-month-old female Sprague Dawley rats (retired breeders, Envigo) were acclimated for one week prior to experiment. […] Using silk ligatures, the experimental periodontitis was induced as described previously^[32, 38]. Briefly, rats were first anesthetized in an isoflurane chamber with a 1% to 4% isoflurane in 100% O2. After taking the body weight, the rats were positioned with a nose cone supplied with 0.5% to 2% isoflurane and 100% O2 to maintain anesthesia during the entire procedure. To induce experimental periodontitis, a 4-0 silk ligature was gently tightened subgingivally around the maxillary 2nd molars (M2). […] To probe the presence of inflammatory cells between M1 and M2 and osteoclasts in the alveolar crest, a pathologist (SML) blind to experimental group assignment, evaluated the slides semi-quantitatively using an Olympus BX53 microscope. A semi-quantitative scoring system^[32, 40, 41] was used to evaluate inflammatory cells, where 0 is negative, 1 is less than 30% of the affected tissues, 2 is some inflammatory cells (30-60%), and 3 is many inflammatory cells (>60%). Similarly, osteoclasts on the alveolar crest were evaluated using a semi-quantitative scoring system^[32,42] where 0 is negative, 1 is a few osteoclasts lining less than 5% of alveolar bone surface, 2 is some osteoclasts (5-25%), and 3 is many osteoclasts (25-50%). […]

[3] = tested on: experimental periodontitis; experiment: BIO hydrogels in rat experimental periodontitis, H&E histology scores; type: in vivo, Sprague Dawley rats
Text: as §1

[4] = tested on: experimental periodontitis; experiment: BIO hydrogels in rat experimental periodontitis, micro-CT of periodontal bone and femur; type: in vivo, Sprague Dawley rats; details: 100 μM BIO, week 4
Text: Ten-month-old female Sprague Dawley rats (retired breeders, Envigo) were acclimated for one week prior to experiment. […] Using silk ligatures, the experimental periodontitis was induced as described previously^[32, 38]. Briefly, rats were first anesthetized in an isoflurane chamber with a 1% to 4% isoflurane in 100% O2. After taking the body weight, the rats were positioned with a nose cone supplied with 0.5% to 2% isoflurane and 100% O2 to maintain anesthesia during the entire procedure. To induce experimental periodontitis, a 4-0 silk ligature was gently tightened subgingivally around the maxillary 2nd molars (M2). Following ligature placement, different treatments (10 μL) were locally delivered between the maxillary 1st molar (M1) and 2nd molar (M2) once each week for 3 weeks. After one week, the ligatures were removed. All animals were euthanized at week 4. The entire palate including all three molars was dissected and fixed in 10% formalin prior to micro-CT and histological analyses. […] All palate samples (including all three molars) were evaluated for alveolar bone quality using a high-resolution X-ray microtomography system (Skyscan 1172, Bruker, Kontich, Belgium), references to previous studies^[32, 38]. […] To evaluate bone erosion, the distance from cementoenamel junction (CEJ) to alveolar bone crest (ABC) was determined using Skyscan Data viewer software. […] The ROI was determined from the distopalatal of M1 to the mesiopalatal of M2 (length), 130 slices below the CEJ of M1 and M2 (height), and from the palatal side to the buccal side of M1 and M2 (width). […] For bone quality analysis, a consistent polygonal ROI of trabecular bone at the distal femur was selected and the ROI was determined from 20 slices to 100 slices proximal to the growth plate. The bone histomorphometric parameters, including mean bone volume (BV), bone volume/tissue volume (BV/TV), trabecular thickness (Tb.Th) and bone mineral density (BMD) were determined using CT-Analyzer software.

[5] = 10 μL local once each week for 3 weeks

O=C1Nc2cc(Br)ccc2/C1=C1/Nc2ccccc2/C1=N\O [BIO, 6-bromoindirubin-3′-oxime]
burst release of BIO ([1]; from 20% w/v PF127 hydrogel, first 3 hr): ~50%
total release of BIO ([1]; from 20% w/v PF127 hydrogel, in 24 hr): ~99%
BIO release profile ([1]; from 25% w/v PF127 hydrogel): burst release in the first 12 hr followed by a sustained release in the next 48 hr
duration of sustained BIO release ([1]; from 30% w/v PF127 hydrogel): over 48 hr
β-Catenin positive cell score (0-3) [2]: not significantly different (P>0.05) from the saline Con-, PF127, and healthy Con+ group
osteoclast score (semi-quantitative, 0-3) ([3]; alveolar crest, after three weeks of treatment): significantly lower than the saline Con-group
inflammatory cell score (semi-quantitative, 0-3) ([3]; between M1 and M2, after three weeks of treatment): statistically significant difference (P<0.01) only when compared to the saline Con-group
linear distance CEJ to ABC (alveolar bone loss) ([4]; 10 μL local between M1 and M2 once each week for 3 weeks): did not show a statistically significant difference comparing to the saline-treated group
Bone volume (BV) of alveolar bone [4, 5]: No statistically significant difference
trabecular thickness (Tb.Th) of alveolar bone [4, 5]: No statistically significant difference
